Assay results as given in US20190307843A1, “SINGLE DOSE METHODS FOR PREVENTING AND TREATING FUNGAL INFECTIONS” (Cidara Therapeutics, Inc., priority 2016, published 2019).
Several values for one entry are separate records, joined by “and”; a condition that tells them apart may be missing. Identical values can stand only once. Like-named read-outs stand apart in the source and are kept apart here. Starred links: 1 amine or outer side, 2 acyl side, 3 side chain; linkers in the order of their positions; H or OH if unused. Positions of bridges follow the written chain, without caps; N, C: chain ends. Non-standard residues stand in square brackets, D forms with d. Residues, ends and D or L forms follow the SMILES beside them. *: point of attachment. Orn(4R-OH,5R-OCH2CH2NMe3+) = C[N+](C)(C)CCO[C@@H](N[*:3])[C@H](O)C[C@H](N[*:1])C(=O)[*:2]; pTerphenylCO(4''-OnC5H11) = CCCCCOc1ccc(-c2ccc(-c3ccc(C(=O)*)cc3)cc2)cc1; hTyr(3S-OH,4S-OH) = N[C@H](C(=O)O)[C@H](O)[C@@H](O)c1ccc(O)cc1; Pro(3S-OH,4S-Me) = C[C@H]1CN[C@H](C(=O)O)[C@H]1O; Hyp = O=C(O)[C@@H]1C[C@@H](O)CN1

What was measured:
[1] = system: C. albicans; experiment: Neutropenic murine disseminated candidiasis model, PK/PD targets, C. albicans
[2] = system: C. glabrata; experiment: In vitro susceptibility testing (CLSI M27-A3), C. glabrata; assay type: cell-based, Candida glabrata; conditions: Nakaseomyces glabratus, 24 h
Experimental: (§1) Ten clinical Candida strains were used for the in vivo treatment studies, including four C. albicans, three C. glabrata, and three C. parapsilosis strains (Table 15). This group was selected to encompass phenotypic variability in susceptibility to triazoles and echinocandins and based on similar fitness in the animal model as defined by the amount of growth in control animals over 24 h. The organisms were maintained, grown, and quantified on Sabouraud's dextrose agar (SDA) plates.
(§2) In vitro susceptibility testing. All isolates were tested in accordance with the standards in CLSI document M27-A3. The MICs were determined visually after 24 h of incubation as the lowest concentration of drug that causes a significant diminution (50%) of growth compared to controls. MICs were determined on three separate occasions in duplicate.

[3] = Protein binding by ultracentrifugation, mouse plasma; assay type: in vitro ADME; conditions: read-out: percent of bound CD101, mean (protein binding) (converted)
Experimental: Concentrations in plasma ranging from 7 to 60 μg/mL were tested and resulting samples were analyzed by LC-MS/MS.

[4] = Plasma and lung epithelial lining fluid (ELF) concentrations in ICR mice, 20 mg/kg IP; assay type: in vivo, mouse; conditions: for Kp / half-life: 20 mg/kg
Experimental: At pre-dose, 1, 3, 6, 12, 24, 48, and 72 hours post-dose, 3 mice/timepoint were anesthetized/euthanized for blood collection (plasma) and bronchoalveolar lavage fluid (BALF) collection with 2×0.5 mL flushes of saline. Urea levels for plasma/BALF normalization for the volume of lung epithelial lining fluid (ELF) calculation were quantified using a commercially-available spectrophotometry-based assay. CD101 concentrations in plasma/BALF samples were measured by LC with electrospray ionization tandem mass spectrometric (LC-MS/MS) detection.
Urea for plasma/BALF normalization for ELF volume were quantified using spectrophotometry. CD101 concentrations in plasma/BALF samples were measured by LC-MS/MS. Total plasma concentrations were corrected for protein binding (99.2%).

[5] = Pharmacokinetics in healthy human adults (Phase 1); assay type: in vivo; conditions: for AUC: human, plasma, free drug, read-out: average 24 h AUC over a 7 day period
Source text: The in vitro activity of CD101 was previously evaluated as part of the SENTRY international surveillance program using CLSI broth microdilution methodology (M38-A2, M27-A3; Pfaller, et al 2017). […] These susceptibility data were then compared graphically to CD101 plasma concentrations from studies in healthy adults, adjusted for plasma protein binding. Nonclinical efficacy in a murine model of Pneumocystis pneumonia were also considered to evaluate CD101 doses for clinical investigation of antifungal prophylaxis.

[6] = system: invasive candidiasis; experiment: Human subject with invasive candidiasis, single subcutaneous dose (Example 3); assay type: in vivo; conditions: single dose of 50-1200 mg acetate salt of CD101, subcutaneous injection
Experimental: A human subject is diagnosed with invasive candidiasis using standard diagnostic procedures. The subject receives treatment with a single dose of 50-1200 mg (e.g., 75±25 mg, 100±25 mg, 150±50 mg, 200±50 mg, 250±50 mg, 300±50 mg, 350±50 mg, 400±50 mg, 450±50 mg, 500±100 mg, 600±100 mg, 700±100 mg, 800±100 mg, 900±50 mg, 1000 mg±100 mg, or 1100±100 mg) of the acetate salt of CD101 administered by subcutaneous injection. No other antifungal treatment is provided to the subject within one to three weeks before or after administration of the single dose CD101 treatment.

[7] = system: Candida albicans (R357); experiment: Neutropenic mouse model of azole-resistant candidiasis, kidney CFU; assay type: in vivo; conditions: CD101 3 mg/kg single IP dose, 72 hours
[8] = system: C. albicans; experiment: In vitro susceptibility testing (CLSI M27-A3), C. albicans; assay type: cell-based; conditions: Candida albicans, 24 h
Experimental: as §1, §2

[9] = C. albicans, Median of 4 strains

SMILES: CCCCCOc1ccc(-c2ccc(-c3ccc(C(=O)N[C@H]4C[C@@H](O)[C@@H](OCC[N+](C)(C)C)NC(=O)[C@@H]5[C@@H](O)[C@@H](C)CN5C(=O)[C@H]([C@@H](C)O)NC(=O)[C@H]([C@H](O)[C@@H](O)c5ccc(O)cc5)NC(=O)[C@@H]5C[C@@H](O)CN5C(=O)[C@H]([C@@H](C)O)NC4=O)cc3)cc2)cc1 [CD101] ({pTerphenylCO(4''-OnC5H11)}-[Orn(4R-OH,5R-OCH2CH2NMe3+)]T[Hyp][hTyr(3S-OH,4S-OH)]T[Pro(3S-OH,4S-Me)]; lactam 1-C)
- 1 log kill 24 h Ave Free drug AUC/MIC ([1]; C. albicans 98-17): 3.92
- 1 log kill dose ([1]; C. albicans 98-17): 2.73 mg/kg
- 1 log kill free drug AUC0-168h/MIC ([1]; C. albicans 98-17): 27.47
- 1 log kill total drug AUC0-168h/MIC ([1]; C. albicans 98-17): 3433.40
- Stasis 24 h Ave free drug AUC/MIC ([1]; C. albicans 98-17): 2.19
- Stasis free drug AUC0-168h/MIC ([1]; C. albicans 98-17): 15.35
- Stasis total drug AUC0-168h/MIC ([1]; C. albicans 98-17): 1918.43
- Static dose ([1]; C. albicans 98-17): 1.34 mg/kg
- 1 log kill 24 h Ave Free drug AUC/MIC ([1]; C. albicans 98-210): 6.72
- 1 log kill dose ([1]; C. albicans 98-210): 2.28 mg/kg
- 1 log kill free drug AUC0-168h/MIC ([1]; C. albicans 98-210): 47.01
- 1 log kill total drug AUC0-168h/MIC ([1]; C. albicans 98-210): 5875.95
- Stasis 24 h Ave free drug AUC/MIC ([1]; C. albicans 98-210): 3.70
- Stasis free drug AUC0-168h/MIC ([1]; C. albicans 98-210): 25.93
- Stasis total drug AUC0-168h/MIC ([1]; C. albicans 98-210): 3241.65
- Static dose ([1]; C. albicans 98-210): 1.06 mg/kg
- 1 log kill 24 h Ave Free drug AUC/MIC ([1]; C. albicans 580): 3.05
- 1 log kill dose ([1]; C. albicans 580): 2.03 mg/kg
- 1 log kill free drug AUC0-168h/MIC ([1]; C. albicans 580): 21.34
- 1 log kill total drug AUC0-168h/MIC ([1]; C. albicans 580): 2667.21
- Stasis 24 h Ave free drug AUC/MIC ([1]; C. albicans 580): 2.02
- Stasis free drug AUC0-168h/MIC ([1]; C. albicans 580): 14.15
- Stasis total drug AUC0-168h/MIC ([1]; C. albicans 580): 1769.30
- Static dose ([1]; C. albicans 580): 1.20 mg/kg
- 1 log kill 24 h Ave Free drug AUC/MIC ([1]; C. albicans K-1): 6.86
- 1 log kill dose ([1]; C. albicans K-1): 5.26 mg/kg
- 1 log kill free drug AUC0-168h/MIC ([1]; C. albicans K-1): 48.05
- 1 log kill total drug AUC0-168h/MIC ([1]; C. albicans K-1): 6005.95
- Stasis 24 h Ave free drug AUC/MIC ([1]; C. albicans K-1): 3.65
- Stasis free drug AUC0-168h/MIC ([1]; C. albicans K-1): 25.58
- Stasis total drug AUC0-168h/MIC ([1]; C. albicans K-1): 3197.16
- Static dose ([1]; C. albicans K-1): 2.52 mg/kg
- 1 log kill 24 h Ave Free drug AUC/MIC ([1]; C. albicans, Mean of 4 strains): 5.14
- 1 log kill dose ([1]; C. albicans, Mean of 4 strains): 3.08 mg/kg
- 1 log kill free drug AUC0-168h/MIC ([1]; C. albicans, Mean of 4 strains): 35.97
- 1 log kill total drug AUC0-168h/MIC ([1]; C. albicans, Mean of 4 strains): 4495.63
- Stasis 24 h Ave free drug AUC/MIC ([1]; C. albicans, Mean of 4 strains): 2.89
- Stasis free drug AUC0-168h/MIC ([1]; C. albicans, Mean of 4 strains): 20.25
- Stasis total drug AUC0-168h/MIC ([1]; C. albicans, Mean of 4 strains): 2531.64
- Static dose ([1]; C. albicans, Mean of 4 strains): 1.53 mg/kg
- 1 log kill 24 h Ave Free drug AUC/MIC [1, 9]: 5.32
- 1 log kill dose [1, 9]: 2.51 mg/kg
- 1 log kill free drug AUC0-168h/MIC [1, 9]: 37.24
- 1 log kill total drug AUC0-168h/MIC [1, 9]: 4654.68
- Stasis 24 h Ave free drug AUC/MIC [1, 9]: 2.92
- Stasis free drug AUC0-168h/MIC [1, 9]: 20.5 and 20.46
- Stasis total drug AUC0-168h/MIC [1, 9]: 2557.79
- Static dose [1, 9]: 1.27 mg/kg
- kill at high doses ([1]; C. albicans, a number of strains): > 2 log10
- MIC ([2]; C. glabrata 5592): 0.125 µg/mL
- MIC ([2]; C. glabrata 10956): 1 µg/mL
- MIC ([2]; C. glabrata 35315): 0.5 µg/mL
- fraction unbound at 2.5 hr [3]: 0.008
- ELF half-life ([4]; 20 mg/kg IP): 32 h
- mean maximum ELF concentration ([4]; 20 mg/kg IP): 15.1 µg/mL
- mean maximum plasma concentration ([4]; 20 mg/kg IP): 30.1 µg/mL
- plasma half-life ([4]; 20 mg/kg IP): 21.1 h
- time of maximum plasma concentration ([4]; 20 mg/kg IP, first collection timepoint): 1 h
- Kp ([4]; ICR, mouse, lung epithelial lining fluid (ELF), intraperitoneal, free-drug, read-out: ELF/Plasma AUClast ratio): 100
- Kp ([4]; ICR, mouse, lung epithelial lining fluid (ELF), intraperitoneal, total-drug, read-out: ELF/Plasma AUClast ratio): 0.8
- concentration at 72 h ([4]; ICR, mouse, lung epithelial lining fluid (ELF), intraperitoneal, 20 mg/kg IP, at 72 h): 4000 ng/mL
- Kp ([4]; ICR, mouse, lung epithelial lining fluid (ELF), ip, 20 mg/kg IP, read-out: AUC exposure ratios of ELF/plasma): 0.8 to 0.95
- half-life ([4]; ICR, mouse, lung epithelial lining fluid (ELF), ip, 20 mg/kg IP, read-out: ELF half-life (converted)): 1910 min
- AUC ([4]; ICR, mouse, lung epithelial lining fluid (ELF), 20 mg/kg IP, read-out: mean ELF AUC): 802 µg·h/mL
- AUC(0-t) ([4]; ICR, mouse, lung epithelial lining fluid (ELF), 20 mg/kg IP, read-out: mean ELF AUC0-72): 606 µg·h/mL
- half-life ([4]; ICR, mouse, plasma, ip, 20 mg/kg IP, read-out: plasma half-life (converted)): 1260 min
- AUC ([4]; ICR, mouse, plasma, 20 mg/kg IP, read-out: mean plasma AUC): 848 µg·h/mL
- AUC(0-t) ([4]; ICR, mouse, plasma, 20 mg/kg IP, read-out: mean plasma AUC0-72): 762 µg·h/mL
- free drug AUC0-168 ([5]; 200 mg dose): 15.4 mg·h/L
- free drug AUC0-168 ([5]; 400 mg dose): 30.2 mg·h/L
- time plasma concentrations above the MEC90 for A. fumigatus ([5]; both 400 mg and 200 mg): 7 days
- AUC ([5]; 200 mg dose): ~2200 ng·h/mL
- AUC ([5]; 400 mg dose): ~4300 ng·h/mL
- mean unbound plasma concentrations relative to MIC90 for C. albicans ([5]; single dose of 400 mg, Phase 1 subjects): above the MIC90 for C. albicans for seven days
- invasive candidiasis infection at follow-up visit [6]: confirmed to be resolved
- reduction in C. albicans CFU compared with vehicle [7]: > 3 log
- MIC ([8]; C. albicans 98-17): 0.06 µg/mL
- MIC ([8]; C. albicans 98-210): 0.03 µg/mL
- MIC ([8]; C. albicans 580): 0.06 µg/mL
- MIC ([8]; C. albicans K-1, 50% growth diminution): 0.06 µg/mL
